Reference: PMC10054240, “New Inhibitors of Respiratory Syncytial Virus (RSV) Replication Based on Monoterpene-Substituted Arylcoumarins” (Molecules, 2023)
Read-outs that look alike come from different tables or passages of the source.

Columns and labels:
[1] = Cytotoxicity on non-infected HEp-2 cells, MTT assay; format: cell-based; details: human, non-infected HEp-2 cells, CC50 (50% cytotoxic concentration), MTT, 24 h
[2] = system: RSV A strain A2; assay: Antiviral activity against RSV A strain A2 in HEp-2 cells (ELISA virus titer); format: cell-based, respiratory syncytial virus; details: for pIC50 (-lg[IC50]) / IC50: from Table 1 values; for IC50: HEp-2, RSV A, read-out: pIC50 (-lg[IC50]) (converted)
[3] = system: RSV A2 virus; assay: Time-of-addition assay; format: cell-based, respiratory syncytial virus; details: 300 μg/mL, RSV A2, titer by ELISA
Protocol: Compounds 14e and 14b at a concentration of 300 μg/mL were added at different time intervals before, after, or during virus inoculation (Figure 2 and Figure 3). The time of compound addition was counted off from Point 0, i.e., the moment of virus entry into the cell. RSV A2 virus was added to cells at a time conventionally designated as […]; then, cells were kept at a temperature of 40 °C for 1 h. Next, at Point 0, unbound virus was washed off, fresh medium containing compounds at the same concentration was added, and the cells were transferred to a thermostat at 37 °C where they were incubated for 25 h. After this, medium collected from each well was used to make a series of ten-fold dilutions with fresh cell culture. The cells were incubated for 6 days. The viral titer was measured by ELISA.
Compounds were added at different time points before, after, or simultaneously with the introduction of the virus. The time of addition of the compounds was counted from Point 0, i.e., the time of entry of the virus into the cell. During the period (−1)–0, the cells together with the virus were incubated at 40 °C. All other experiments were carried out at 37 °C. RSV virus A […] was added to the cells at a time that was conventionally designated as […], after which the cells were kept for an hour at a temperature of 40 °C. Then, at Point 0, the virus was unbound. […]

[4] = system: RSV type B; assay: Inhibition of reproduction of RSV type B; format: cell-based; details: human respiratory syncytial virus
Protocol: The antiviral activity against the respiratory syncytial virus was assessed in a series of 3-fold dilutions of test compounds, starting from ½CC50, which were added to HEp-2 cell culture, at a double concentration, 100 μL per well, followed by addition of 100 μL of the virus in a series of 10-fold dilutions. Cells were incubated at 37 °C and 5% CO2 for 1 h. Then, the virus was washed out, and the compounds were again added at a single concentration and incubated at 37 °C and 5% CO2 for 6 days. For the enzyme-linked immunosorbent assay (ELISA), cell culture was fixed with cold 80% acetone at −20 °C for 15 min, and then washed with phosphate buffered saline containing 0.05% Tween 20. Next, a solution of primary mouse anti-RSV F protein antibodies was added to the culture and incubated at room temperature under continuous stirring for 2 h. Then, cells were again washed with buffer, secondary anti-mouse antibodies were added, and the cells were incubated under continuous stirring for 2 h. […] After 5 min, the reaction was stopped with 0.1 M sulfuric acid, and optical density of the solution was measured at a wavelength of 450 nm. Wells with absorbance values two fold or greater than the cell control were considered to be […]. The virus titer was calculated using the Reed and Muench method. […]

[5] = system: HEp-2 cells; assay: Cytotoxicity on non-infected HEp-2 cells, MTT assay; format: cell-based
[6] = human respiratory syncytial virus
[7] = human respiratory syncytial virus, HEp-2, read-out: EC50 (50% effective concentration)

Compound	CC50 at 24 h [1] [µM]	SI (selective index) [2]	pIC50 (-lg[IC50]) ([2]; RSV A)	EC50 ([2]; read-out: EC50 (50% effective concentration)) [µM]	effect on viral titer depending on time of addition (in words) [3]	antiviral activity against RSV A (in words) ([2]; RSV A, HEp-2 cells)	IC50 [2, 6] [µM]	EC50 [2, 7] [µM]	EC50 [4] [µM]	cytotoxicity (in words) [5]
CC1(C)C2CC=C(COc3ccc4c(-c5ccccc5)cc(=O)oc4c3)C1C2 (stereo not shown) [Compound 14b]	591 ± 85.2	32.8	4.75	18 ± 0.9	reduced the viral titer at all time periods, except for prophylactic use 2 h before virus entry into cells					
CC1(C)[C@H]2CC=C(CCCOc3ccc4c(-c5ccccc5)cc(=O)oc4c3)[C@@H]1C2 [Compound 14e, 7-(3-((1R,5S)-6,6-Dimethylbicyclo[3.1.1]hept-2-en-2-yl)propoxy)-4-phenyl-2H-chromen-2-one]	1440 ± 85.1				reduced the viral titer upon addition at all time periods through 6 h after infection	inhibiting virus replication at low micromolar concentrations	7.59	7.5 ± 0.4	3 ± 0.2	
CC1(C)[C@H]2CC=C(CNc3ccc4c(-c5ccccc5)cc(=O)oc4c3)[C@@H]1C2 [Compound 21, 7-(((1R,5S)-6,6-Dimethylbicyclo[3.1.1]hept-2-en-2-yl)methylamino)-4-phenyl-2H-chromen-2-one]	20.5 ± 1.4		4.90				> 12.6	> 13		abrupt increase in cytotoxicity
